Test results from patent US20210100872A1, “Pharmacological Formulation Comprising Cyclo (HIS-PRO) As Effective Ingredient For Preventing Or Treating Diabetes Mellitus” (Novmetapharma Co., Ltd., priority 2017, published 2021).

Key:
Assay type in all cases: in vivo, human
[1] = test system: patients with type 2 diabetes mellitus; test: Change in concentration of HbA1c, 12-week clinical trial; details: for concentration of HbA1c, Average / concentration of HbA1c, Change Value, Average: capsule once a day; for concentration of HbA1c, Change Value, Average: From Week 0 to Week 12
Experimental: (§1) We conducted a clinical trial designed as randomized, placebo-controlled, double-blind, and two-way crossover on drug interaction in patients with type 2 diabetes mellitus. The clinical trial was conducted for 149 patients over a total of 16 weeks, in which the screening period was 2 weeks, the treatment period was 12 weeks, and the period of the evaluation of safety and follow-up was 2 weeks.
(§2) In the screening stage, 64 subjects were selected from 149 participants, and the subjects who met the selection criteria were fasted for 2 hours before and after breakfast each day and subjected to a 2-week evaluation process of measuring and recording blood glucose levels. In the treatment stage, capsules containing placebo or CHP with different doses were randomly administered to 64 selected subjects once a day for 12 consecutive weeks.
(§3) In the above experiment, a capsule containing CHP (cyclo-hispro) with a different dose or a placebo corresponding thereto was used, and each subject received a two-week dose (18 capsules =14 +4) at one visit and was instructed to take 1 capsule before bedtime every day. In this case, the anti-diabetic drugs and other prescribed drugs currently being used were continuously taken. Each subject was assigned at the same rate as follows and administered with a placebo or a compound with a different dose, respectively. • Administration Group A: 3 mg of CHP+23 mg of zinc—16 subjects • Administration Group B: 9 mg of CHP+23 mg of zinc—16 subjects • Administration Group C: 15 mg of CHP+23 mg of zinc—16 subjects • Administration Group D: placebo (control)—16 subjects
The present inventors observed the change in concentration of HbA1c during the 12-week dosing period. Since the blood glucose level measured at one time point can change due to various factors, the change in glycated hemoglobin (HbA1c) was checked for the purpose of determining the pattern of long-term glycemic control, and the results are shown in Table 1 and FIG. 1.

[2] = Change in body weight, 12-week clinical trial
Experimental: as §1, §2
(§4) In the above experiment, a capsule containing CHP (cyclo-hispro) with a different dose or a placebo corresponding thereto was used, and each subject received a two-week dose (18 capsules =14 +4) at one visit and was instructed to take 1 capsule before bedtime every day. In this case, the anti-diabetic drugs and other prescribed drugs currently being used were continuously taken. […]

[3] = Body mass index (BMI), 12-week clinical trial; details: capsule once a day, From Week 0 to Week 12
Experimental: as §1, §2, §3
The present inventors confirmed the improvement of body mass index (BMI) and the improvement of leptin resistance, and the results are shown in Tables 3 and 4.

[4] = test system: patients with type 2 diabetes mellitus; test: Plasma leptin level (leptin resistance), 12-week clinical trial; details: Administration Group A: 3 mg of CHP+23 mg of zinc, capsule once a day; From Week 0 to Week 12
Experimental: as §1, §2, §4

[5] = Administration Group A: 3 mg of CHP+23 mg of zinc
[6] = Administration Group B: 9 mg of CHP+23 mg of zinc
[7] = Administration Group C: 15 mg of CHP+23 mg of zinc

## O=C1NC(Cc2c[nH]cn2)C(=O)N2CCCC12 (centres unmarked) [CHP, cyclo(his-pro)]
[1]; Administration Group A: 3 mg of CHP+23 mg of zinc, Baseline (Week 0)
  concentration of HbA1c, Average: 8.25%
[1]; [5]
  concentration of HbA1c, Change Value, Average: −0.21%
[1]; Administration Group B: 9 mg of CHP+23 mg of zinc, Baseline (Week 0)
  concentration of HbA1c, Average: 8.06%
[1]; [6]
  concentration of HbA1c, Change Value, Average: −0.17%
[1]; Administration Group C: 15 mg of CHP+23 mg of zinc, Baseline (Week 0)
  concentration of HbA1c, Average: 8.49%
[1]; [7]
  concentration of HbA1c, Change Value, Average: −0.43%
[1]; Administration Group C: 15 mg of CHP+23 mg of zinc, Week 12
  concentration of HbA1c, Average: 8.08%
[1]; Administration Group C: 15 mg of CHP+23 mg of zinc, week 0 to week 12
  level of HbA1c over time (FIG. 1): reduced consistently until week 8, and then there was little change in the level of HbA1c between week 8 and week 12
[2]; Administration Group A: 3 mg of CHP+23 mg of zinc, capsule once a day, From Week 0 to Week 12
  body weight, Change Value, Average: -0.73 kg
[2]; all patient groups receiving CHP (3, 9, 15 mg+23 mg of zinc), 12 weeks
  weight gain compared to the control: less than the control, or the body weight was reduced
[3]; [5]
  body mass index (BMI), Change Value, Average: −0.27 kg/m^2
[3]; [6]
  body mass index (BMI), Change Value, Average: 0.16 kg/m^2
[3]; [7]
  body mass index (BMI), Change Value, Average: −0.28 kg/m^2
[4]
  plasma leptin level, Change Value, Average: 0.59
